Columns and labels:
Type in all cases: in vivo
[1] = system: oriental fruit moth (Laspeyresia molesta); assay: Example 28: peach trees against oriental fruit moth; details: 41 d after treatment, Pyrifroxyfen (35 WP) 123, Acetamiprid (30 SG) 168, (I-4) (150 OD) 153 g a.s./ha
Experimental: Approx. 10-year-old peach trees are treated, in four replications, against the oriental fruit moth (Laspeyresia molesta). The application is carried out with a knapsack sprayer which is operated with pressurized air. Here, the active substance (I-4) (150 OD) is tested against the commercial standards Pyriproxyfen (35 WP) and Acetamiprid (30 SG) at the specified application rates. The water application rate is 935 l/ha.
The test is evaluated 41 days after the treatment by scoring the destruction rate of the animals on the trees.

Carpocapsa pomonella = assay: Example 29: apple trees against Carpocapsa pomonella, fruit damage; details: application rate printed as g a.s./ha: Chlorpyrifos-methyl (25 WP) 0.1, (I-4) (240 SC + 0.1% Steffes Mero) 0.012
Experimental: Approx. 15-year-old apple trees cv. “Golden Delicious” are treated, in four replications, against Carpocapsa pomonella. The application is carried out with an atomizer. Here, the active substance Example (I-4) (240 SC) in a tank mix together with 0.1% a.s. of the adjuvant Steffes Mero (rapeseed oil methyl ester) (733 1R) and the commercial standard Chlorpyrifos-methyl (25 WP) are tested at the specified application rates. The water application rate is 1052 l/ha. Two applications are carried out at an interval of 13 days.
The test is evaluated 32 days after treatment 2 by scoring the fruit damage with the aid of the Abbott formula.

[2] = system: Leptinotarsa decemlineata; assay: Example 23: potatoes against Leptinotarsa decemlineata
Experimental: Plots approx. 10 m^2 in size which are planted with potatoes “Quarta” are treated, in three replications, against Leptinotarsa decemlineata. The application is carried out with a knapsack sprayer operated with pressurized air. Here, the active substance Example (I-4) (240 SC), in a tank mix together with 0.2% a.s. rapeseed oil methyl ester (500 EW) and the commercial standard Deltamethrin (100 EC), is tested at the specified application rate. The water application rate is 300 l/ha.
The test is evaluated 3, 8 and 20 days after the treatment by scoring the destruction rate of the animals (larvae) on the plants.

[3] = system: apple capsid bug (Plesiocoris rugicollis); assay: Example 1B: apple trees against apple capsid bug; details: 37 d after treatment, larvae on twigs, Deltamethrin (EC 025) 3.75, (I-4) (150 OD) 30 g a.s./ha/m crown level
Experimental: Apple trees cv. “Holsteiner Cox” which are approximately 14 years old are treated, in 3 replications, against the apple capsid bug (Plesiocoris rugicollis). Here, the active substance Example (I-4) (150 OD) is tested at the specified application rate against the commercial standard Deltamethrin liquid (EC 025) at the specified application rate. The application is carried out with a knapsack sprayer. Here, the treatment is effected with a water application rate of 500 l/ha/m crown level.
The test is evaluated 37 days after the treatment by scoring the destruction of the larvae on the twigs with the aid of the Abbott method.

Ceutorhynchus napi = assay: Example 26-A: oilseed rape against Ceutorhynchus napi; details: 55 d after treatment, larvae, Deltamethrin (25 EC) 5, (I-4) (+ 0.2% rapeseed oil methyl ester) 72, Thiacloprid (OD 240) 72, Lambda-cyhalothrin 5 g a.s./ha
Experimental: Plots approx. 25 m^2 in size which are planted with oilseed rape cv. “Artus” are treated, in four replications, against Ceutorhynchus napi. The application is carried out with a motor-operated knapsack sprayer. Here, the active substance Example (I-4), in a tank mix with 0.2% a.s. rapeseed oil methyl ester (500 EW) and the commercial standards Deltamethrin (25 EC), lambda-cyhalothrin (S100) and Thiacloprid (OD 240), is tested at the specified application rates. The water application rate is 250 l/ha.
The test is evaluated 55 days after the treatment by scoring the destruction rate of the larvae on the plants.

Rhagoletis cerasi = assay: Example 21: cherry trees against Rhagoletis cerasi; details: 23 d after treatment 2, larvae on fruits, Dimethoate (400 EC) 200, (I-4) (150 OD) 75 g a.s./ha/m crown level
Experimental: Cherry trees cv. “Van” which are approximately 26 years old are treated, in three replications, against Rhagoletis cerasi. The application is carried out with an atomizer. Here, the active substance Example (I-4) (150 OD) and the commercial standard dimethoate (400 EC) are applied at the specified application rates. Two applications are carried out at an interval of 6 days with a water application rate of 500 l/ha/m crown level.
The test is evaluated 23 days after treatment 2 by scoring the destruction rates of the animals (larvae) on the fruits with the aid of the Abbott formula.

Thrips tabaci [4] = assay: Example 6: onions against Thrips tabaci; details: population on leaves
Experimental: Plots 15 m^2 in size which are planted with onions are treated, in two replications, against Thrips tabaci. The application is effected with a knapsack sprayer which is operated with pressurized air. Here, the active substances Example (I-4), in a tank mix together with 0.2% a.s. rapeseed oil methyl ester (500 EW) and the commercial standard dimethoate and (380 EC), are tested at the specified application rates in a tank mix with 0.9% a.s. E-actipron (900 EC). The water application rate is 300 l/ha.
The test was evaluated 43 and 62 days after the treatment by scoring the destruction rate of the population on the leaves.

Caliothrips phaseoli = assay: Example 3: courgettes against Caliothrips phaseoli; details: 8 d after treatment, nymphs on 5 leaves, Endosulfan (350 EC) 525, (I-4) (240 SC + 0.1% rapeseed oil methyl ester) 72 g a.s./ha
Experimental: Plots approx. 22 m^2 in size which are planted with courgettes cv. “Italiana negra” are treated, in three replications, against Caliothrips phaseoli. The application is effected with a motor-driven knapsack sprayer. Here, the active substance Example (I-4) (240 SC), in a tank mix together with 0.1% a.s. rapeseed oil methyl ester (500 EW) and the commercial standard endosulfan (350 EC), is tested at the specified application rates. The water application rate is approx. 510 l/ha.
The test is evaluated 8 days after the treatment by scoring the destruction of the animals (nymphs) on 5 leaves.

Dasineura pyri = assay: Example 19b): pear trees against Dasineura pyri; details: 9 d after treatment 2, larvae in rolled leaves, Endosulfan (350 EC) 472.5, (I-4) as 240 SC + Mero (0.1% rapeseed oil methyl ester) 120 g a.s./ha/m crown level
Experimental: Fully-grown pear trees cv. “Conference” of crown height approx. 3.5 m are treated, in four replications, against Dasineura pyri. Here, the active substance Example (I-4) is tested as (150 OD) and (240 SC) together with 0.1% a.s. rapeseed oil methyl ester (Mero 733 1R) in a tank mix at the specified application rate against the commercial standard Endosulfan (350 EC) at the specified application rate. The application is carried out with a spray diffuser. Here, the treatment is effected with a water application rate of 1000 l/ha/m crown level. Two applications are carried out at an interval of 7 days.
The test is evaluated 9 days after treatment 2 by scoring the destruction rate of the larvae in the rolled leaves, using the Abbott method.

Dasineura mali = assay: Example 19 a): apple trees against Dasineura mali; details: 59 d after treatment; larvae, apple twigs; Pirimicarb (50 WG) 125, (I-4) (100 OD) 72 g a.s./ha/m crown level
Experimental: Apple trees cv. “Elan” which are approximately 16 years old are treated, in 3 replications, against the Dasineura mali. Here, the active substance Example (I-4) (100 OD) is tested at the specified application rate against the commercial standard and Pirimicarb (50 WG) at the specified application rate. The application is carried out with a spray diffuser. Here, the treatment is effected with a water application rate of 1000 l/ha/m crown level.
The test is evaluated 59 days after the treatment by scoring the destruction of the larvae on the basis of the adults present on the twigs with the aid of the Abbott method.

Empoasca biguttula = assay: Example 16: aubergines against Empoasca biguttula
Experimental: Plots 10 m^2 in size which are planted with aubergines are treated, in three replications, against Empoasca biguttula. The application is carried out with a knapsack sprayer which is operated with pressurized air. Here, the active substance Example (I-4) (150 OD) is tested against the commercial standards Imidacloprid (SL 100) and Profenofos (500 EC) at the specified application rates. Two applications are carried out at an interval of 7 days. The water application rate is 750 l/ha.
The test is evaluated 2, 6 and 13 days after the first treatment by scoring the destruction rates of the animals (nymphs) on the plants.

Thrips tabaci [5] = assay: Example 11: dwarf beans against Thrips tabaci
Experimental: Plots approx. 26 m^2 in size which are planted with dwarf beans are treated 16 days after emergence against Thrips tabaci, in four replications. The application is carried out with a knapsack sprayer which is operated with pressurized air. Here, the active substances Example (I-2) (240 SC) (I-4) (240 SC) and Example (I-9) (240 SC), in a tank mix with 0.1% a.s. rapeseed oil methyl ester (500 EW), are tested against the commercial standard Profenofos (720 EC) at the specified application rates. The water application rate is 1000 l/ha. Two applications are carried out at an interval of 10 days.
The test is evaluated 5 and 11 days after the first treatment by scoring the destruction rate of the nymphs on the leaves.

[6] = system: flea beetles (Phyllotreta sp.); assay: Example 24: aubergines against flea beetles; details: 7 d after the last of four treatments, larvae, Imidacloprid (100 SL) 100, (I-4) (100 OD) 70, Profenofos (500 EC) 500 g a.s./ha
Experimental: Plots approx. 12 m^2 in size which are planted with aubergines cv. “DLP” are treated, in three replications, against flea beetles (Phyllotreta sp.). The application is carried out with a knapsack sprayer which is operated with pressurized air. Here, the active substance Example (I-4) (100 OD) and the commercial standards Imidacloprid (100 SL) and Profenofos (500 EC) are applied at the specified application rates. Four applications are carried out at intervals of 7, 8 and 10 days, with a water application rate of 750 l/ha.
The test is evaluated 7 days after the last treatment by scoring the destruction rate of the larvae on the plants.

Pegomya spp. = assay: Example 17: winter wheat against Pegomya spp.; details: 3 days after the last of two treatments (interval 7 days), larvae, Thiacloprid (240 OD) 72, (I-4) (240 SC + 0.2% rapeseed oil methyl ester) 96 g a.s./ha
Experimental: Plots approx. 25 m^2 in size which are planted with winter wheat cv. “Capfern” are treated, in four replications, against Pegomya spp. The application is carried out with a knapsack sprayer which is operated with pressurized air. Here, the active substance Example (I-4) (240 SC), in a tank mix with 0.2% a.s. rapeseed oil methyl ester (500 EW) and the commercial standard Thiacloprid (240 OD), is tested at the specified application rates. Two applications are carried out at an interval of 7 days. The water application rate is 350 l/ha.
The test is evaluated 3 days after the last treatment by scoring the destruction rate of the larvae on the plants.

## C/C(=N\C#N)N(C)Cc1ccc(Cl)nc1 [Acetamiprid]
[1]
  Efficacy (% Abbott) 41 d: 35.8 % Abbott

## COP(=S)(OC)Oc1nc(Cl)c(Cl)cc1Cl [Chlorpyrifos-methyl]
Carpocapsa pomonella
  Efficacy (% Abbott) 32 d after treatment 2: 66.7 % Abbott

## CC1(C)[C@H](C(=O)O[C@H](C#N)c2cccc(Oc3ccccc3)c2)[C@@H]1C=C(Br)Br [Deltamethrin]
[2]; 3 d after treatment, larvae, Deltamethrin (100 EC) 75, (I-4) (240 SC + 0.2% rapeseed oil methyl ester) 72 g a.s./ha
  Efficacy (% Abbott) 3 d: 100 % Abbott
[2]; 8 d after treatment, Deltamethrin 75, (I-4) 72 g a.s./ha
  Efficacy (% Abbott) 8 d: 100 % Abbott
[2]; 20 d after treatment, Deltamethrin 75, (I-4) 72 g a.s./ha
  Efficacy (% Abbott) 20 d: 100 % Abbott
[3]
  Efficacy (%) Abbott 37 d: 78%
Ceutorhynchus napi
  Efficacy (% Abbott) 55 d: 77.1 % Abbott

## CNC(=O)CSP(=S)(OC)OC [Dimethoate, dimethoate]
Rhagoletis cerasi
  Efficacy (% Abbott) 23 d: 100 % Abbott
Thrips tabaci [4]; 43 d after treatment, Dimethoate (380 EC + 0.9% E-actipron) 380, (I-4) (+ 0.2% rapeseed oil methyl ester) 96 g a.s./ha
  Efficacy (% Abbott) 43 d: 64.5 % Abbott
Thrips tabaci [4]; 62 d after treatment, Dimethoate 380, (I-4) 96 g a.s./ha
  Efficacy (% Abbott) 62 d: 74.8 % Abbott

## O=S1OCC2C(CO1)C1(Cl)C(Cl)=C(Cl)C2(Cl)C1(Cl)Cl (stereo not shown) [Endosulfan, endosulfan]
Caliothrips phaseoli
  Efficacy (% Abbott) 8 d: 67.0 % Abbott
Dasineura pyri
  Efficacy (% Abbott) 9 d: 71.6 % Abbott

## Cc1nc(N(C)C)nc(OC(=O)N(C)C)c1C [Pirimicarb]
Dasineura mali
  Efficacy (%) Abbott 59 d: 0%

## CCCSP(=O)(OCC)Oc1ccc(Br)cc1Cl (stereo not shown) [Profenofos]
Empoasca biguttula; 2 d after first treatment, nymphs, Imidacloprid (SL 100) 30, (I-4) (150 OD) 50, Profenofos (500 EC) 500 g a.s./ha, two applications, interval 7 days
  Efficacy (% Abott) 2 d: 41.3 % Abott
Empoasca biguttula; 6 d after first treatment, Imidacloprid 30, (I-4) 50, Profenofos 500 g a.s./ha
  Efficacy (% Abott) 6 d: 65.1 % Abott
Empoasca biguttula; 13 d after first treatment, Imidacloprid 30, (I-4) 50, Profenofos 500 g a.s./ha
  Efficacy (% Abott) 13 d: 53.8 % Abott
Thrips tabaci [5]; 5 d after first treatment, nymphs on leaves, Profenofos (720 EC) 1300, (I-9) 54, (I-2) 54, (I-4) 60 g a.s./ha, 240 SC + 0.1% rapeseed oil methyl ester
  Efficacy (% Abbott) 5 d: 80 % Abbott
Thrips tabaci [5]; 11 d after first treatment (second application at 10 days), Profenofos 1300, (I-9) 54, (I-2) 54, (I-4) 60 g a.s./ha
  Efficacy (% Abbott) 11 d: 75 % Abbott
[6]
  Efficacy (% Abbott) 7 d: 84 % Abbott

## CC(COc1ccc(Oc2ccccc2)cc1)Oc1ccccn1 (stereo not shown) [Pyrifroxyfen, Pyriproxyfen]
[1]
  Efficacy (% Abbott) 41 d: 39.0 % Abbott

## N#C/N=C1\SCCN1Cc1ccc(Cl)nc1 [Thiacloprid]
Pegomya spp.
  Efficacy (% Abbott) 10 d: 100 % Abbott
Ceutorhynchus napi
  Efficacy (% Abbott) 55 d: 52.4 % Abbott
